Test results from publication PMC10065799, “High-throughput profiling of sequence recognition by tyrosine kinases and SH2 domains using bacterial peptide display” (eLife, 2023).
Each block holds one sequence with its values, some of them ahead of it.

Experiments:
Test in all cases: pTyr-Var library bacterial peptide display kinase screen (enrichment scores)
c-Src kinase domain = c-Src kinase domain (Homo sapiens, UniProt P12931); type: biochemical; details: sheet "Src";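 also: log2 fold change in enrichment of variant over reference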
EPHB1 kinase domain = type: biochemical, human; details: for Screen (variant relative to reference peptide, measured in the pTyr-Var library screen): sheet "EPHB1", variant seq vs reference seq, bacterial peptide display enrichment; for Screen: sheet EPHB1, effect of the variant peptide relative to its reference peptide in the pTyr-Var library screen (enrichment scores)
EPHB2 kinase domain = type: biochemical, human; details: sheet EPHB2
Fer kinase domain = type: biochemical, mouse; details: sheet "Fer"
c-Abl kinase domain = biological target: T1, c-Abl kinase domain (Mus musculus, UniProt P00520); type: biochemical;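 also: log2 fold change in enrichment of variant over reference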
T1 sequence (P00520 242-493 limits assumed): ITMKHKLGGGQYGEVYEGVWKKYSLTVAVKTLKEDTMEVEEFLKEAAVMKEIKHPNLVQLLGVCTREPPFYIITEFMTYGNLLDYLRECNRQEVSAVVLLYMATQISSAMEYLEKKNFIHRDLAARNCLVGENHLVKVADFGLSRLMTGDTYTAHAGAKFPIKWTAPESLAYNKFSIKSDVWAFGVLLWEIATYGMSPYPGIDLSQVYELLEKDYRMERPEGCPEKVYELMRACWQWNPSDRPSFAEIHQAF

[1] = effect of the variant peptide relative to its reference peptide in the pTyr-Var library screen
[2] = variant peptide versus its reference peptide in the pTyr-Var library screen
[3] = effect of the variant relative to its reference peptide in the pTyr-Var library screen
[4] = value of the variant peptide against its reference peptide in the pTyr-Var library screen with Fer
[5] = fig5-data2, sheet "Abl", Screen for the variant/reference peptide pair, pTyr-Var library
[6] = sheet "Abl", effect of variant peptide relative to its reference peptide in pTyr-Var library screen (enrichment)
[7] = effect of variant peptide relative to its reference peptide in the pTyr-Var library screen (enrichment scores)
[8] = variant peptide relative to its reference peptide, pTyr-Var library screen enrichment

Sequence: VDGSVYKLPPS [GCK_Y413_H416P]
Screen (c-Src kinase domain; [1]): -1.181

Sequence: KMKGDYFCFLA [YWHAG_Y130_R132C_YF]
Screen (c-Src kinase domain; [2]): 0.4816 | Screen (variant relative to reference peptide, measured in the pTyr-Var library screen) (EPHB1 kinase domain): 1.698 | Screen (EPHB2 kinase domain; [3]): 1.601

Sequence: SVMAEYGLFRA [VSX2_Y219_G223R_YF]
Screen (c-Src kinase domain; [2]): -0.02483

Sequence: PLDGGYFTLQI [TP53_Y327_E326G]
Screen (c-Src kinase domain; [2]): -1.493

Sequence: NTGVFYDLFGG [PTPN11_Y63_D61V_YF]
Screen (c-Src kinase domain; [2]): 0.1029 | Screen (Fer kinase domain; [4]): 0.6171

Sequence: KCCCIYEKPRS [PPP1R11_Y64_A69S]
Screen (c-Src kinase domain; [2]): -0.2424 | Screen (c-Abl kinase domain; [5]): 0.7147 | Screen (Fer kinase domain; [4]): -0.1382

Sequence: PPSELYFVKVD [TERT_Y707_P704S]
Screen (c-Src kinase domain; [2]): -0.06532

Sequence: EFQLPYFNTVP [BMPR1A_Y457_M460T_YF]
Screen (c-Src kinase domain; [1]): -0.7468

Sequence: PLDGEYFTPQI [TP53_Y327_L330P]
Screen (c-Src kinase domain; [2]): -3.182 | Screen (variant relative to reference peptide, measured in the pTyr-Var library screen) (EPHB1 kinase domain): -0.3708 | Screen (EPHB2 kinase domain; [3]): 0.1464

Sequence: IGGHAYGDQFR [IDH1_Y135_R132G_YF]
Screen (c-Abl kinase domain; [5]): -1.313

Sequence: RRIHSYRGHLC [VHL_Y112_W117C]
Screen (c-Src kinase domain; [2]): -2.769 | Screen (variant relative to reference peptide, measured in the pTyr-Var library screen) (EPHB1 kinase domain): -1.181

Sequence: QPEDIYHQTWA [GBA_Y244_G241E]
Screen (c-Src kinase domain; [1]): 0.7767 | Screen (Fer kinase domain; [4]): 1.354

Sequence: IDAVCYFRMEN [NPHS2_Y194_I192V_YF]
Screen (c-Abl kinase domain; [5]): -2.251

Sequence: AGDGRYEVLFL [SEMA3F_Y478_A474G]
Screen (Fer kinase domain; [8]): 0.6103

Sequence: NQELIYEGQRL [TBK1_Y354_R357Q]
Screen (c-Src kinase domain; [2]): -0.1995 | Screen (Fer kinase domain; [8]): 0.5191

Sequence: ASENVYVNTAH [CTSC_Y150_I153T]
Screen (c-Src kinase domain; [1]): -1.46 | Screen (Fer kinase domain; [4]): -2.892 | Screen (EPHB1 kinase domain): -1.518

Sequence: LFSNAYLSDLA [ALDH1A1_Y119_N121S_YF]
Screen (c-Src kinase domain; [1]): 1.319 | Screen (EPHB1 kinase domain): 1.358

Sequence: NAGDFYDLFGG [PTPN11_Y63_T59A_YF]
Screen (c-Src kinase domain; [2]): 0.4386 | Screen (c-Abl kinase domain; [5]): -0.2092 | Screen (Fer kinase domain; [8]): 0.394

Sequence: SDPIVYTLENI [EMR1_Y534_I533V]
Screen (c-Src kinase domain; [1]): -0.3296 | Screen (Fer kinase domain; [4]): -1.778

Sequence: RPAFTYATLIR [FOXP3_Y342_P339A]
Screen (c-Src kinase domain; [1]): 1.034 | Screen (c-Abl kinase domain; [5]): 1.493 | Screen (EPHB1 kinase domain): -0.4742

Sequence: QMVGKYASSFM [AVPR2_Y124_M123K_YF]
Screen (c-Src kinase domain; [1]): -1.364

Sequence: EGDGVYTLNNK [HP_Y125_E130K]
Screen (c-Src kinase domain; [1]): 0.08373

Sequence: NVADHYRVFKP [ATP6V0D2_Y271_G272R_YF]
Screen (c-Src kinase domain; [1]): -3.184

Sequence: FVPSFYHAFSG [ACTN4_Y265_S262P_YF]
Screen (c-Src kinase domain; [1]): -1.103 | Screen (EPHB1 kinase domain): -0.2788

The remaining lines, values ahead:

Screen (c-Abl kinase domain; [5]): -0.5363
Sequence: EFITRYIDSLK [PSMA7_Y110_A112D_YF]

Screen (c-Abl kinase domain; [6]): 2.88
Sequence: DVQNEYDSNHC [ZFYVE16_Y36_A35E]

Screen (c-Abl kinase domain; [5]): 0.808
Sequence: SLNEEYAKNKT [MSH2_Y563_T564A]

Screen (variant relative to reference peptide, measured in the pTyr-Var library screen) (EPHB1 kinase domain): 1.333
Sequence: MGSFNYLGFAW [SPTLC2_Y178_R183W_YF]

Screen (EPHB1 kinase domain): 3.773 | Screen (EPHB2 kinase domain; [7]): 2.804
Sequence: NNHGNYIVLLG [ETFDH_Y172_R175L]

Screen (c-Abl kinase domain; [5]): -1.124
Sequence: EIIPFYGMSSF [FNDC3B_Y175_T179S_YF]

Screen (c-Abl kinase domain; [5]): 0.6294 | Screen (EPHB2 kinase domain; [7]): 0.851
Sequence: PNAFIYVVQLP [L1CAM_Y420_A415P_YF]

Screen (c-Abl kinase domain; [6]): -4.72 | Screen (variant relative to reference peptide, measured in the pTyr-Var library screen) (EPHB1 kinase domain): -0.06401
Sequence: HSREDYFECFQ [ZIM2_Y411_Q408R]

Screen (EPHB1 kinase domain): 0.6281
Sequence: CPFNLYAAQLS [HGD_Y40_E42A_YF]

Screen (c-Abl kinase domain; [6]): -1.491
Sequence: DTQNSYRCATS [TSC1_Y304_G305R]

Screen (c-Abl kinase domain; [5]): -0.6842
Sequence: EFTAGYNVKFD [GPX4_Y123_A120T]

Screen (c-Abl kinase domain; [6]): -0.4882
Sequence: DKPENYRRLDI [VHL_Y175_V170D]

Screen (c-Abl kinase domain; [6]): -2.912
Sequence: CVAARYMDMKG [WFIKKN2_Y93_V96M]

Screen (EPHB1 kinase domain): -1.963
Sequence: FGSGNYNVFGN [HNRNPA2B1_Y300_D302V_YF]

Screen (EPHB1 kinase domain): 3.84
Sequence: SSSPTYLDLPF [GLI3_Y168_P169L]

Screen (c-Abl kinase domain; [6]): 3.605
Sequence: NGEDLYAGSTD [XRCC1_Y515_P514L]

Screen (Fer kinase domain; [4]): 0.1249
Sequence: QRCFVYFFSFL [PTEN_Y176_R173C_YF]

Screen (Fer kinase domain; [4]): -0.5143
Sequence: FPSLPYSPVSS [CAMKK2_Y128_C123Y_YF]

Screen (EPHB1 kinase domain): 0.3113
Sequence: KFLENYFDLEK [MMP3_Y41_K45E_YF]

Screen (c-Abl kinase domain; [6]): -1.788
Sequence: TENAGYFFQVS [TTN_Y31721_R31724Q_YF]

Screen (c-Abl kinase domain; [5]): 2.373
Sequence: MLEVPYVDHNS [F10_Y384_R387H]

Screen (c-Abl kinase domain; [6]): 0.4767
Sequence: RRGMPYGGHGD [TGM1_Y312_R315H]

Screen (c-Abl kinase domain; [6]): -0.7143
Sequence: HLQDEYDFKCK [STAT1_Y170_D165H]

Screen (Fer kinase domain; [8]): 2.568
Sequence: FDSPFYQDSLP [TSC1_Y508_R509Q]

Screen (c-Abl kinase domain; [5]): 0.7055
Sequence: RIDPDYMGRVR [IGSF9_Y81_V82M]

Screen (EPHB1 kinase domain): 1.011
Sequence: LKMLVYMDMSK [LRRC7_Y234_L235M]
